Non-standard residues stand in square brackets, D forms with d. Residues, ends and D or L forms follow the SMILES beside them. pT = C[C@@H](OP(=O)(O)O)[C@H](N)C(=O)O; pS = N[C@@H](COP(=O)(O)O)C(=O)O
Tests used:
Type in all cases: binding
[1] = target: T1, GABARAPL2 (Homo sapiens, UniProt P60520); test: FP displacement assay, GABARAPL2; settings: read-out: KD values ± SEM
T1 construct: GABARAPL2_ATG8__P60520_2_115; GST (cleaved yes); made in house; host or cells: Escherichia coli BL21-Gold(DE3)
Description: (§1) FP experiments were performed as described previously (Kliche et al, [2021]). Shortly, in order to monitor the binding event, FITC‐labelled peptides were used (excitation 495 nm, emission: 535 nm) and the FP signal was recorded in mP on a SpectraMax iD5 Multi‐Mode Microplate Reader (Molecular Devices) by measuring the emitted light in two angels. The measurements were performed at room temperature and prepared in nonbinding black half area 96‐well microplates (Corning®; 50 μl/well). For measuring direct binding, that is saturation curves, a 1:1 dilution series of protein domain (25 μl/well) was generated in 50 mM sodium phosphate buffer pH 7.4 and the measurement performed with 5 nM FITC‐labelled peptide (25 μl/well). The buffer‐corrected values were subsequently plotted with PRISM and fitted to the quadratic equation (Gianni et al, [2005]).
(§2) The 1:1 dilution series in this experiment was performed with the unlabelled peptide in 50 mM sodium phosphate buffer pH 7.4, so that each well‐contained unlabelled peptide (25 μl) at a certain concentration and pre‐formed complex (25 μl). The KD values of this indirectly monitored binding event were calculated as described previously (Nikolovska‐Coleska et al, [2004]). All measurements were at least in technical triplicates as well as biological duplicates when indicated. An amplitude shift between repeat measurements in the displacement experiments was occasionally observed due to variations in the protein preparations. If that was the case, the “active” protein concentration was back‐calculated according to the quadratic equation from the saturation curves performed in parallel. By comparing the active protein concentrations in the complex between different protein preparations, the amplitude was normalised.

[2] = target: T2, MAP1LC3B (Homo sapiens, UniProt Q9GZQ8); test: FP displacement assay, MAP1LC3B; settings: read-out: KD values ± SEM
T2 construct: GST (cleaved yes); made in house; host or cells: Escherichia coli BL21-Gold(DE3)
Description: as §1, §2

[3] = target: T3, MAP1LC3A (Homo sapiens, UniProt Q9H492); test: FP displacement assay, MAP1LC3A
T3 construct: GST (cleaved yes); made in house; host or cells: Escherichia coli BL21-Gold(DE3)

[4] = target: T4, KPNA4 ARM minor (Homo sapiens, UniProt O00629); test: FP displacement assay, KPNA4 ARM minor pocket; settings: for Kd: minor pocket probe FITC-NCOR2 5 nM, 50 mM sodium phosphate pH 7.4, room temperature, at least three technical replicates, read-out: KD values ± SEM; for IC50: Fig 3E, KPNA4 ARM minor, technical triplicates, read-out: IC50 values of displacement curves, with SEM
T4 construct: 60-487; GST (cleaved yes); made in house; host or cells: Escherichia coli BL21-Gold(DE3)
T4 sequence (O00629 60-487): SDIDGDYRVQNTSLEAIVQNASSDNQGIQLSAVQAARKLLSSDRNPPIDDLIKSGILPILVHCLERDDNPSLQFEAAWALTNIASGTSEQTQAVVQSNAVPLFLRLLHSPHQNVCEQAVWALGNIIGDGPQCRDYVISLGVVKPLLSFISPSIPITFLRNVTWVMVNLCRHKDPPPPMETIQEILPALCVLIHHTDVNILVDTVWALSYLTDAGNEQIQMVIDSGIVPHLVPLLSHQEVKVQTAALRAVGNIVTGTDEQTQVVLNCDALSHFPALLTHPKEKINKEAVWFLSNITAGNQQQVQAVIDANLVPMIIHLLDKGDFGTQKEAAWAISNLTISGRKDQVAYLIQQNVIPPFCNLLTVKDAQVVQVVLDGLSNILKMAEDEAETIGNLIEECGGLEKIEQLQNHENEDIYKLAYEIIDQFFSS
Description: as §1, §2

[5] = target: T5, KPNA4 ARM Major (Homo sapiens, UniProt O00629); test: FP displacement assay, KPNA4 ARM major pocket; settings: for Kd: major pocket probe FITC-MYC 5 nM, 50 mM sodium phosphate pH 7.4, room temperature, at least three technical replicates, read-out: KD values ± SEM; for IC50: Fig 3E, KPNA4 ARM major, technical triplicates, read-out: IC50 values of displacement curves, with SEM
T5 construct: 60-487; GST (cleaved yes); made in house; host or cells: Escherichia coli BL21-Gold(DE3)
T5 sequence (O00629 60-487): as above
Description: as §1, §2

T1 sequence (P60520 2-115): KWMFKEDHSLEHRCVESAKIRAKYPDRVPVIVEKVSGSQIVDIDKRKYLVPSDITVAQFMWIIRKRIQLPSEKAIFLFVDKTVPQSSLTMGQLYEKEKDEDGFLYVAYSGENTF

Row | Kd [4] [µM] | Kd [5] [µM] | IC50 [4] [µM] | IC50 [5] [µM] | SMILES | Kd [1] [µM] | Kd [2] [µM] | IC50 ([3]; Fig 4B, MAP1LC3A ATG8, FP displacement, technical triplicates, read-out: IC50 values of displacement curves, with SEM) [µM] | Kd ([3]; read-out: KD values ± SEM) [µM]
1 |  |  |  |  | CC(=O)N[C@@H](Cc1ccc(O)cc1)C(=O)N[C@@H](CCCCN)C(=O)N[C@@H](CCCCN)C(=O)N[C@@H](CCC(N)=O)C(=O)N[C@@H](CC(C)C)C(=O)N[C@@H](CCCCN)C(=O)N[C@@H](CCCNC(=N)N)C(=O)N[C@@H](Cc1ccccc1)C(=O)N[C@@H](CO)C(=O)N[C@H](C(=O)N[C@@H](CCC(=O)O)C(=O)N[C@@H](CCC(=O)O)C(=O)N[C@@H](Cc1ccccc1)C(=O)N[C@H](C(=O)N[C@@H](CC(C)C)C(=O)N[C@@H](CC(C)C)C(=O)O)C(C)C)[C@@H](C)O [ATG4C444–458 wt] | 0.8 ± 0.4 | 7.1 ± 0.6 | 17 ± 1 | 5.2 ± 0.2
2 | 248 ± 3 | 50 ± 7 |  |  | CC(=O)N[C@@H](CC(=O)O)C(=O)N[C@H](C(=O)N[C@@H](CCC(=O)O)C(=O)N[C@@H](Cc1c[nH]cn1)C(=O)NCC(=O)NCC(=O)N[C@@H](CCCCN)C(=O)N[C@@H](CCCNC(=N)N)C(=O)N[C@@H](COP(=O)(O)O)C(=O)N[C@@H](CCCNC(=N)N)C(=O)N[C@@H](CC(C)C)C(=O)N[C@H](C(=O)N1CCC[C@H]1C(=O)N[C@H](C(=O)N[C@@H](CO)C(=O)N[C@@H](Cc1ccc(O)cc1)C(N)=O)C(C)C)[C@@H](C)O)C(C)C [SQSTM1_258–272 pS] (Ac-DVEHGGKR[pS]RLTPVSY-NH2) |  |  |  | 
3 |  |  |  |  | CC(=O)N[C@@H](C)C(=O)N[C@@H](CC(N)=O)C(=O)N[C@@H](CO)C(=O)N[C@@H](Cc1c[nH]c2ccccc12)C(=O)N[C@@H](CCC(N)=O)C(=O)N[C@@H](CC(C)C)C(=O)N[C@H](C(=O)N[C@@H](CCC(=O)O)C(=O)N[C@H](C(=O)N1CCC[C@H]1C(=O)N[C@@H](CCC(=O)O)C(=O)N[C@@H](CCCCN)C(=O)N[C@@H](CCCNC(=N)N)C(=O)N[C@@H](CCCCN)C(=O)N[C@@H](CCC(=O)O)C(=O)N[C@@H](CCC(=O)O)C(N)=O)[C@@H](C)O)C(C)C [DLGAP4_907–922 wt] (Ac-ANSWQLVETPEKRKEE-NH2) | 174 ± 22 |  |  | 
4 | 68 ± 4 | 0.15 ± 0.01 | 325 ± 34 | 1.3 ± 0.2 | CC(=O)N[C@@H](CC(N)=O)C(=O)N[C@@H](Cc1ccc(O)cc1)C(=O)N[C@@H](C)C(=O)N1CCC[C@H]1C(=O)N1CCC[C@H]1C(=O)N[C@H](C(=O)N[C@@H](CCCCN)C(=O)N[C@@H](CCCNC(=N)N)C(=O)N[C@@H](CCC(=O)O)C(=O)N[C@@H](CCCNC(=N)N)C(=O)N[C@H](C(=O)N[C@@H](CO)C(=O)N[C@@H](CO)C(=O)N[C@@H](CC(C)C)C(=O)N[C@H](C(=O)N[C@@H](CCC(N)=O)C(N)=O)[C@@H](C)O)[C@@H](C)O)C(C)C [RANBP3_114–129 wt] (Ac-NYAPPVKRERTSSLTQ-NH2) |  |  |  | 
5 | 167 ± 9 | 1.13 ± 0.05 | 800 ± 75 | 10 ± 1 | CC(=O)N[C@@H](CC(N)=O)C(=O)N[C@@H](Cc1ccc(O)cc1)C(=O)N[C@@H](C)C(=O)N1CCC[C@H]1C(=O)N1CCC[C@H]1C(=O)N[C@H](C(=O)N[C@@H](CCCCN)C(=O)N[C@@H](CCCNC(=N)N)C(=O)N[C@@H](CCC(=O)O)C(=O)N[C@@H](CCCNC(=N)N)C(=O)N[C@H](C(=O)N[C@@H](CO)C(=O)N[C@@H](CO)C(=O)N[C@@H](CC(C)C)C(=O)N[C@H](C(=O)N[C@@H](CCC(N)=O)C(N)=O)[C@@H](C)O)[C@@H](C)OP(=O)(O)O)C(C)C [RANBP3_114–129 pS (p + 5)] (Ac-NYAPPVKRER[pT]SSLTQ-NH2) |  |  |  | 
6 | 14 ± 0.7 | 0.24 ± 0.04 |  |  | CC(=O)N[C@@H](CC(=O)O)C(=O)N[C@H](C(=O)N[C@@H](CCC(=O)O)C(=O)N[C@@H](Cc1c[nH]cn1)C(=O)NCC(=O)NCC(=O)N[C@@H](CCCCN)C(=O)N[C@@H](CCCNC(=N)N)C(=O)N[C@@H](CO)C(=O)N[C@@H](CCCNC(=N)N)C(=O)N[C@@H](CC(C)C)C(=O)N[C@H](C(=O)N1CCC[C@H]1C(=O)N[C@H](C(=O)N[C@@H](CO)C(=O)N[C@@H](Cc1ccc(O)cc1)C(N)=O)C(C)C)[C@@H](C)O)C(C)C [SQSTM1_258–272 wt] (Ac-DVEHGGKRSRLTPVSY-NH2) |  |  |  | 

Source: PMC10333884, “Large‐scale phosphomimetic screening identifies phospho‐modulated motif‐based protein interactions” (Molecular Systems Biology, 2023)
